Test: Effective concentration of compound was determined for electrophysiological properties on Ionotropic glutamate receptor AMPA 1 (GluR1) using […] Xenopus laevis oocytes

NC(Cc1o[nH]c(=O)c1Cl)C(=O)O [(R,S)-2-amino-3-(4-chloro-3-hydroxy-5-isoxazolyl)propionate]
EC50: 4.7 µM

From BindingDB's records for doi:10.1021/jm020588f (The Danish University of Pharmaceutical Sciences, 2003)
